Source: article PMC11987006 (iScience, 2025)

Key:
WT N2 animal [1] = assay: salt chemotaxis with tyramine/octopamine, WT N2; type: in vivo, C. elegans; details: 10 μM TA or OA or both in conditioning solutions or test plate agar
WT N2 animal [2] = assay: salt chemotaxis learning with tyramine/octopamine, WT N2; type: in vivo, C. elegans; details: 10 μM TA or OA or both in conditioning solutions or test plate agar

Compound | effect on salt chemotaxis (WT N2 animal [1]) | effect on SCL (learning index) (WT N2 animal [2])
NCC(O)c1ccc(O)cc1 (stereo not shown) [OA, octopamine] | no obvious impact | no obvious impact
NCCc1ccc(O)cc1 [TA, tyramine] | no obvious impact | no obvious impact
